Experimental data: the supplement of paper PMC10307832

Experiments:
Assay in all cases: relative viability (nuclei count vs DMSO), 5 days (fraction); higher = more cells survive
[1] = tested on: 201T
Summary of the method: (§1)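 Lung cancer cell lines, seeded in 1536-well plates, were treated the following day by pin tool with a single drug or with five library-drug doses (not always all listed) in √10 steps on top of a fixed anchor-drug dose. Cells were fixed and nuclei stained in one step after 5 days, and nuclei were counted. Relative viability is the nuclei count for treated wells divided by that for vehicle wells, reported as medians of duplicate plates.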

[2] = tested on: A-427
Summary of the method: as §1

[3] = tested on: COR-L23
Summary of the method: as §1

[4] = tested on: H3255
Summary of the method: as §1

[5] = tested on: HCC-44
Summary of the method: as §1

[6] = tested on: LCLC-103H
Summary of the method: as §1

[7] = tested on: LCLC-97TM1
Summary of the method: as §1

[8] = tested on: LK-2
Summary of the method: as §1

[9] = tested on: LU99A
Summary of the method: as §1

[10] = tested on: NCI-H1563
Summary of the method: as §1

[11] = tested on: NCI-H1793
Summary of the method: as §1

[12] = tested on: NCI-H1944
Summary of the method: as §1

[13] = tested on: NCI-H2347
Summary of the method: as §1

[14] = tested on: NCI-H23
Summary of the method: as §1

[15] = tested on: NCI-H460
Summary of the method: as §1

[16] = tested on: NCI-H650
Summary of the method: as §1

[17] = tested on: NCI-H727
Summary of the method: as §1

[18] = tested on: NCI-H838
Summary of the method: as §1

[19] = tested on: PC-14
Summary of the method: as §1

[20] = tested on: PC-3 [JPC-3]
Summary of the method: as §1

[21] = tested on: SW 1573
Summary of the method: as §1

Compound `O=C(O)c1ccc(-c2c[nH]c3ncc(-c4ccccc4)cc23)cc1C1CCCC1` + C[C@]1(O)C[C@@H](c2nc(-c3ccc4ccc(-c5ccccc5)nc4c3)c3c(N)nccn32)C1 [Linsitinib] (partner 1 µM) has a relative viability ([1]; first compound 0.04 µM) of 1.07, a relative viability ([1]; first compound 0.1265 µM) of 1.06 and a relative viability ([1]; first compound 0.4 µM) of 0.979. For the same compound, the relative viability ([1]; first compound 1.265 µM) was 0.946, the relative viability ([2]; first compound 0.04 µM) was 1.14 and the relative viability ([2]; first compound 0.1265 µM) was 1.1. The relative viability ([2]; first compound 0.4 µM) was 1.05, the relative viability ([2]; first compound 1.265 µM) was 0.865 and the relative viability ([3]; first compound 0.04 µM) was 0.866. The relative viability ([3]; first compound 0.1265 µM) was 0.951, the relative viability ([3]; first compound 0.4 µM) was 0.771 and the relative viability ([3]; first compound 1.265 µM) was 0.444. It also gave a relative viability ([4]; first compound 0.04 µM) of 1, a relative viability ([4]; first compound 0.1265 µM) of 0.994 and a relative viability ([4]; first compound 0.4 µM) of 0.935. The relative viability ([4]; first compound 1.265 µM) was 0.909, the relative viability ([5]; first compound 0.04 µM) was 0.664 and the relative viability ([5]; first compound 0.1265 µM) was 0.636. The relative viability ([5]; first compound 0.4 µM) was 0.515, the relative viability ([5]; first compound 1.265 µM) was 0.57 and the relative viability ([6]; first compound 0.04 µM) was 1.04. The relative viability ([6]; first compound 0.1265 µM) was 1.04, the relative viability ([6]; first compound 0.4 µM) was 1.17 and the relative viability ([6]; first compound 1.265 µM) was 1.08. It also gave a relative viability ([7]; first compound 0.04 µM) of 0.204, a relative viability ([7]; first compound 0.1265 µM) of 0.218 and a relative viability ([7]; first compound 0.4 µM) of 0.175. It also gave a relative viability ([7]; first compound 1.265 µM) of 0.166, a relative viability ([8]; first compound 0.04 µM) of 0.667 and a relative viability ([8]; first compound 0.1265 µM) of 0.587. The relative viability ([8]; first compound 0.4 µM) was 0.549, the relative viability ([8]; first compound 1.265 µM) was 0.902 and the relative viability ([9]; first compound 0.04 µM) was 0.548. It also gave a relative viability ([9]; first compound 0.1265 µM) of 0.528, a relative viability ([9]; first compound 0.4 µM) of 0.533 and a relative viability ([9]; first compound 1.265 µM) of 0.511. The relative viability ([10]; first compound 0.04 µM) was 1.22, the relative viability ([10]; first compound 0.1265 µM) was 1.17 and the relative viability ([10]; first compound 0.4 µM) was 1.19. It also gave a relative viability ([10]; first compound 1.265 µM) of 1.18, a relative viability ([11]; first compound 0.04 µM) of 0.909 and a relative viability ([11]; first compound 0.1265 µM) of 0.986. For the same compound, the relative viability ([11]; first compound 0.4 µM) was 1.09, the relative viability ([11]; first compound 1.265 µM) was 0.889 and the relative viability ([12]; first compound 0.04 µM) was 1.18. For the same compound, the relative viability ([12]; first compound 0.1265 µM) was 1.39, the relative viability ([12]; first compound 0.4 µM) was 1.04 and the relative viability ([12]; first compound 1.265 µM) was 1.02. For the same compound, the relative viability ([13]; first compound 0.04 µM) was 0.975, the relative viability ([13]; first compound 0.1265 µM) was 1.11 and the relative viability ([13]; first compound 0.4 µM) was 0.927. It also gave a relative viability ([13]; first compound 1.265 µM) of 0.67, a relative viability ([14]; first compound 0.04 µM) of 0.545 and a relative viability ([14]; first compound 0.1265 µM) of 0.617. The relative viability ([14]; first compound 0.4 µM) was 0.559, the relative viability ([14]; first compound 1.265 µM) was 0.451 and the relative viability ([15]; first compound 0.04 µM) was 0.783. For the same compound, the relative viability ([15]; first compound 0.1265 µM) was 0.989, the relative viability ([15]; first compound 0.4 µM) was 0.753 and the relative viability ([15]; first compound 1.265 µM) was 0.662. It also gave a relative viability ([16]; first compound 0.04 µM) of 0.844, a relative viability ([16]; first compound 0.1265 µM) of 1.04 and a relative viability ([16]; first compound 0.4 µM) of 0.861. The relative viability ([16]; first compound 1.265 µM) was 0.679, the relative viability ([17]; first compound 0.04 µM) was 0.381 and the relative viability ([17]; first compound 0.1265 µM) was 0.361. The relative viability ([17]; first compound 0.4 µM) was 0.243, the relative viability ([17]; first compound 1.265 µM) was 0.294 and the relative viability ([18]; first compound 0.04 µM) was 1.03. For the same compound, the relative viability ([18]; first compound 0.1265 µM) was 1.16, the relative viability ([18]; first compound 0.4 µM) was 1.09 and the relative viability ([18]; first compound 1.265 µM) was 0.997. The relative viability ([19]; first compound 0.04 µM) was 0.937, the relative viability ([19]; first compound 0.1265 µM) was 0.947 and the relative viability ([19]; first compound 0.4 µM) was 1.01. The relative viability ([19]; first compound 1.265 µM) was 0.798, the relative viability ([20]; first compound 0.04 µM) was 0.915 and the relative viability ([20]; first compound 0.1265 µM) was 0.986. It also gave a relative viability ([20]; first compound 0.4 µM) of 0.943, a relative viability ([20]; first compound 1.265 µM) of 0.788 and a relative viability ([21]; first compound 0.04 µM) of 0.753. It also gave a relative viability ([21]; first compound 0.1265 µM) of 0.763, a relative viability ([21]; first compound 0.4 µM) of 0.882 and a relative viability ([21]; first compound 1.265 µM) of 0.569.

`O=C(O)c1ccc(-c2c[nH]c3ncc(-c4ccccc4)cc23)cc1C1CCCC1` + Cc1nc(NC(=O)N2CCC[C@H]2C(N)=O)sc1-c1ccnc(C(C)(C)C(F)(F)F)c1 [Alpelisib] (partner 2 µM) showed a relative viability ([1]; first compound 0.04 µM) of 1.01, a relative viability ([1]; first compound 0.1265 µM) of 1 and a relative viability ([1]; first compound 0.4 µM) of 0.993. For the same compound, the relative viability ([1]; first compound 1.265 µM) was 0.935, the relative viability ([2]; first compound 0.04 µM) was 1.03 and the relative viability ([2]; first compound 0.1265 µM) was 1.13. The relative viability ([2]; first compound 0.4 µM) was 1.06, the relative viability ([2]; first compound 1.265 µM) was 0.93 and the relative viability ([3]; first compound 0.04 µM) was 0.79. The relative viability ([3]; first compound 0.1265 µM) was 0.745, the relative viability ([3]; first compound 0.4 µM) was 0.742 and the relative viability ([3]; first compound 1.265 µM) was 0.61. For the same compound, the relative viability ([4]; first compound 0.04 µM) was 0.931, the relative viability ([4]; first compound 0.1265 µM) was 0.776 and the relative viability ([4]; first compound 0.4 µM) was 0.715. It also gave a relative viability ([4]; first compound 1.265 µM) of 0.769, a relative viability ([5]; first compound 0.04 µM) of 0.889 and a relative viability ([5]; first compound 0.1265 µM) of 0.813. It also gave a relative viability ([5]; first compound 0.4 µM) of 0.848, a relative viability ([5]; first compound 1.265 µM) of 0.477 and a relative viability ([6]; first compound 0.04 µM) of 1.01. The relative viability ([6]; first compound 0.1265 µM) was 1.02, the relative viability ([6]; first compound 0.4 µM) was 1.08 and the relative viability ([6]; first compound 1.265 µM) was 0.984. The relative viability ([7]; first compound 0.04 µM) was 0.278, the relative viability ([7]; first compound 0.1265 µM) was 0.313 and the relative viability ([7]; first compound 0.4 µM) was 0.239. For the same compound, the relative viability ([7]; first compound 1.265 µM) was 0.264, the relative viability ([8]; first compound 0.04 µM) was 1.23 and the relative viability ([8]; first compound 0.1265 µM) was 0.612. The relative viability ([8]; first compound 0.4 µM) was 1.19, the relative viability ([8]; first compound 1.265 µM) was 1.08 and the relative viability ([9]; first compound 0.04 µM) was 0.597. It also gave a relative viability ([9]; first compound 0.1265 µM) of 0.615, a relative viability ([9]; first compound 0.4 µM) of 0.485 and a relative viability ([9]; first compound 1.265 µM) of 0.425. It also gave a relative viability ([10]; first compound 0.04 µM) of 1.01, a relative viability ([10]; first compound 0.1265 µM) of 0.961 and a relative viability ([10]; first compound 0.4 µM) of 0.891. The relative viability ([10]; first compound 1.265 µM) was 0.991, the relative viability ([11]; first compound 0.04 µM) was 0.622 and the relative viability ([11]; first compound 0.1265 µM) was 0.706. The relative viability ([11]; first compound 0.4 µM) was 0.805, the relative viability ([11]; first compound 1.265 µM) was 0.754 and the relative viability ([12]; first compound 0.04 µM) was 0.871. The relative viability ([12]; first compound 0.1265 µM) was 0.94, the relative viability ([12]; first compound 0.4 µM) was 0.833 and the relative viability ([12]; first compound 1.265 µM) was 0.745. The relative viability ([13]; first compound 0.04 µM) was 1.12, the relative viability ([13]; first compound 0.1265 µM) was 1.13 and the relative viability ([13]; first compound 0.4 µM) was 1.11. It also gave a relative viability ([13]; first compound 1.265 µM) of 0.81, a relative viability ([14]; first compound 0.04 µM) of 0.61 and a relative viability ([14]; first compound 0.1265 µM) of 0.852. For the same compound, the relative viability ([14]; first compound 0.4 µM) was 0.672, the relative viability ([14]; first compound 1.265 µM) was 0.423 and the relative viability ([15]; first compound 0.04 µM) was 0.518. For the same compound, the relative viability ([15]; first compound 0.1265 µM) was 0.607, the relative viability ([15]; first compound 0.4 µM) was 0.483 and the relative viability ([15]; first compound 1.265 µM) was 0.416. For the same compound, the relative viability ([16]; first compound 0.04 µM) was 1.19, the relative viability ([16]; first compound 0.1265 µM) was 1.13 and the relative viability ([16]; first compound 0.4 µM) was 0.928. The relative viability ([16]; first compound 1.265 µM) was 0.737, the relative viability ([17]; first compound 0.04 µM) was 0.545 and the relative viability ([17]; first compound 0.1265 µM) was 0.629. It also gave a relative viability ([17]; first compound 0.4 µM) of 0.7, a relative viability ([17]; first compound 1.265 µM) of 0.49 and a relative viability ([18]; first compound 0.04 µM) of 1.08. It also gave a relative viability ([18]; first compound 0.1265 µM) of 1.13, a relative viability ([18]; first compound 0.4 µM) of 1.11 and a relative viability ([18]; first compound 1.265 µM) of 1.02. For the same compound, the relative viability ([19]; first compound 0.04 µM) was 0.933, the relative viability ([19]; first compound 0.1265 µM) was 0.897 and the relative viability ([19]; first compound 0.4 µM) was 0.971. For the same compound, the relative viability ([19]; first compound 1.265 µM) was 0.886, the relative viability ([20]; first compound 0.04 µM) was 1.05 and the relative viability ([20]; first compound 0.1265 µM) was 1.03. For the same compound, the relative viability ([20]; first compound 0.4 µM) was 1.04, the relative viability ([20]; first compound 1.265 µM) was 0.89 and the relative viability ([21]; first compound 0.04 µM) was 0.687. It also gave a relative viability ([21]; first compound 0.1265 µM) of 0.89, a relative viability ([21]; first compound 0.4 µM) of 0.797 and a relative viability ([21]; first compound 1.265 µM) of 0.891.
